Measurements from patent publication US20230086706A1, “Compounds for promoting follicle maturation” (Aarhus Universitet, priority 2020, published 2023).

Key:
[1] = tested on: ovaries (primordial, primary and secondary follicles); assay: Evaluation of follicle numbers after ovary organ culture with compound; assay type: cell-based, C57BL/6j×CBA F1 hybrid mice; conditions: ovaries of 7-day-old female pups cultured four days; 0.5 μM and 1 μM for 582 and 583, 25 μM for 798 and 798 (so in the source)
Procedure: C57BL/6j×CBA F1 hybrid mice (Janvier Labs, France) were housed and bred in the animal facilities at Department of Biomedicine, Aarhus University. Animals were housed in a 12:12 h controlled light-dark environment and were provided with food and water ad libitum. 7-day-old female pups were used for the study.
Pups were sacrificed and ovaries were excised. Using a stereomicroscope MZ75 (Leica Microsystems, Germany), excess tissue was removed. […] 200-300 μL of culture medium was added to the well below the insert and up to two ovaries were placed on the membrane of each insert. […] Up to six wells in the 24-well plate were used for inserts. […] The ovaries were cultured at 37° C., 5% CO2 for four days. 150 μL of medium was replaced every other day with fresh culture medium.
Ovaries kept in organ culture for four days were fixed for 24 hours in 4% paraformaldehyde solution at 4° C. After fixation, ovaries were dehydrated in ethanol series using 70%, 96% and 99.9% ethanol. Xylene was used as clearing agent before the ovaries were infiltrated in paraffin wax. 5 μm-sections of samples in paraffin were cut using a microtome (Cut 6062, SLEE medical, Germany). […] The samples were then rinsed in dH2O, stained in hematoxylin for 40 sec., rinsed in dH2O for 5 min., and stained in eosin for 46 sec. The samples were dehydrated in ethanol: 2×2 min. in 96% ethanol, 2×2 min in 99.9% ethanol, and finally cleared up in xylene for at least 30 min before mounting the samples using Eukitt mounting medium (Sigma-Aldrich) and cover glass. […] The follicles of every 3rd to 4th section of each ovary were counted and the distribution of follicles in the different stages in percentage was determined.

[2] = tested on: ID8 Mouse Ovarian Surface Epithelial Cell Line; assay: Toxicity assay (cell morphology by light microscopy); assay type: cell-based; conditions: 1 μM compound, cells grown for 2 days, morphology checked using light microscopy
Procedure: Immediately, 1 μM compound was added to the media and cells were grown for 2 days and morphology checked using light microscopy.

Structure (SMILES)	overall appearance and size of the ovaries in culture (visual inspection of ovarian sections) [1]	toxicity to the grown cells / alteration of the morphology of the cells [2]
NC(=O)c1ccc[n+](Cc2ccccc2)c1 [Compound 582, 1-benzyl-3-carbamoylpyridin-1-ium]	healthy and the size was normal, no shrinkage was observed	not to alter the morphology of the cells nor to be toxic to the grown cells
C[n+]1cccc(C(N)=O)c1 [Compound 583, 3-carbamoyl-1-methylpyridin-1-ium]	healthy and the size was normal, no shrinkage was observed	not to alter the morphology of the cells nor to be toxic to the grown cells
NC(=O)c1ccc[n+](C2CCOCC2)c1 [Compound 798, 3-carbamoyl-1-(tetrahydro-2H-pyran-4-yl)pyridin-1-ium]	healthy and the size was normal, no shrinkage was observed	not to alter the morphology of the cells nor to be toxic to the grown cells
CC1=C2C[C@H]3[C@@H](CC=C4C[C@@H](O)CC[C@@]43C)[C@@H]2CC[C@]12O[C@@H]1C[C@H](C)CN[C@H]1[C@H]2C [cyclopamine, Cyclopamine, reference compound]	–	not to alter the morphology of the cells nor to be toxic to the grown cells
